{"source": "patent EP3892734B1", "about": "“SCREENING METHODS AND THERAPEUTIC APPLICATIONS BASED ON BACTERIAL MOTILITY INHIBITION” (Ludwig-Maximilians-Universität München, priority 2020, dated 2021)", "key": {"[1]": {"assay": "minimal toxic dose (MTD) testing in mice", "type": "in vivo", "conditions": "oral, up to 60 mg/kg/day, listed as BL2", "experimental": "(§1) The active compounds BL1 and BL2, which were chosen to be tested in a preclinical model, were initially tested for toxicity in the mouse model by […] (MTD) testing. The MTD testing (MTD Tox56000 protocol, Eurofins Panlabs) was performed according to international standards, as will be briefly outlined in the following: Three mice were dosed with the compounds at each intended dose. BL1 active compound was prepared in a suitable stock concentration in 5% DMSO, or 5% DMSO, 10% Solutol, 85% PBS (for the 40 and 60 mg/kg/day), and dosed at 10, 30, 40, or 60 mg/kg/day by intraperitoneal injection (125 µl for each dose). BL2 active compound was dosed orally, at 10 mg/kg/day, 30 mg/kg/day, or 60 mg/kg/day, diluted in 5% DMSO, 2.5% carboxy-methyl-cellulose (CMC), in PBS, also at 125 µl per dose per animal. The dosing in each case started with the lowest dose in the three animals, followed by observation for up to 72 h. Subsequently, the next higher dose was administered to a different set of three mice, etc.. Both compounds to be used subsequently for the in vivo therapeutic administration were verified to be non-toxic to mice below an administered dose of 40 mg/kg per day."}, "[2]": {"assay": "solubility observed when preparing doses for MTD testing", "type": "physicochemical", "conditions": "dosing preparations for MTD testing", "experimental": "as §1"}}, "note": "Entries after “also recorded” stand apart in the source; their conditions may differ.", "data": [{"smiles": "Cn1c(CSC(=N)N)c(Cl)c(=O)n1-c1ccccc1", "note": "[Active 2]", "values": [{"measurement": "toxicity (MTD testing)", "setting": "[1]", "value": "did not show any toxicity; also recorded: not toxic"}, {"measurement": "solubility", "setting": "[2]", "value": "very well soluble"}]}]}
